Results as given in the CheMixHub viscosity set.
± gives the uncertainty stated by the source.

Test: xn = mol fraction of the nth substance listed

C/C=C/C(=O)OCC + CCO
viscosity [mPa·s], 101 kPa
Conditions | x1 = 0.0991 | x1 = 0.1985 | x1 = 0.2994 | x1 = 0.3961 | x1 = 0.5006 | x1 = 0.6 | x1 = 0.6968 | x1 = 0.7816 | x1 = 0.8996
293.15 K | 1.026 ± 0.0082 | 0.929 ± 0.0077 | 0.9257 ± 0.0078 | 0.9219 ± 0.008 | 0.878 ± 0.0079 | 0.8293 ± 0.0078 | 0.8016 ± 0.0079 | 0.8351 ± 0.0084 | 0.8122 ± 0.0087
298.15 K | 0.9334 ± 0.0076 | 0.8523 ± 0.0071 | 0.8465 ± 0.0072 | 0.8404 ± 0.0074 | 0.8061 ± 0.0074 | 0.7663 ± 0.0073 | 0.7402 ± 0.0073 | 0.7648 ± 0.0078 | 0.7535 ± 0.0081
303.15 K | 0.8498 ± 0.007 | 0.7812 ± 0.0066 | 0.7751 ± 0.0067 | 0.7739 ± 0.0069 | 0.7411 ± 0.0068 | 0.7061 ± 0.0068 | 0.6855 ± 0.0069 | 0.7052 ± 0.0073 | 0.7 ± 0.0076
313.15 K | 0.7166 ± 0.0061 | 0.6615 ± 0.0058 | 0.6607 ± 0.0059 | 0.6588 ± 0.006 | 0.6372 ± 0.006 | 0.6091 ± 0.006 | 0.5958 ± 0.0061 | 0.6134 ± 0.0064 | 0.6108 ± 0.0067
323.15 K | 0.6156 ± 0.0053 | 0.5747 ± 0.0051 | 0.5702 ± 0.0052 | 0.5686 ± 0.0053 | 0.5537 ± 0.0053 | 0.5363 ± 0.0054 | 0.5284 ± 0.0055 | 0.5414 ± 0.0058 | 0.5401 ± 0.006

CC(C)OCCO + CN(C)C=O
298.15 K, 101 kPa
Conditions | viscosity [mPa·s]
x1 = 0.0025 | 0.815 ± 0.011
x1 = 0.0124 | 0.827 ± 0.011
x1 = 0.0296 | 0.854 ± 0.011
x1 = 0.048 | 0.885 ± 0.011
x1 = 0.0898 | 0.932 ± 0.012
x1 = 0.1476 | 1.006 ± 0.013
x1 = 0.1908 | 1.066 ± 0.014
x1 = 0.2558 | 1.142 ± 0.015
x1 = 0.3145 | 1.213 ± 0.016
x1 = 0.344 | 1.247 ± 0.016
x1 = 0.3645 | 1.274 ± 0.017
x1 = 0.4159 | 1.34 ± 0.018
x1 = 0.4723 | 1.42 ± 0.019
x1 = 0.52 | 1.491 ± 0.02
x1 = 0.562 | 1.543 ± 0.021
x1 = 0.6131 | 1.617 ± 0.022
x1 = 0.6641 | 1.697 ± 0.024
x1 = 0.7547 | 1.818 ± 0.026
x1 = 0.7959 | 1.874 ± 0.027
x1 = 0.8833 | 2.005 ± 0.029
x1 = 0.9392 | 2.069 ± 0.031
x1 = 0.9642 | 2.093 ± 0.031
x2 = 0.0058 | 2.104 ± 0.032

COC(=O)c1ccccc1 + CCO
viscosity [mPa·s], 100 kPa
Conditions | x1 = 0.05 | x1 = 0.1 | x1 = 0.2 | x1 = 0.3 | x1 = 0.4 | x1 = 0.5 | x1 = 0.6 | x1 = 0.65 | x1 = 0.8 | x1 = 0.9
293.2 K | 1.178 ± 0.025 | 1.178 ± 0.025 | 1.207 ± 0.026 | 1.26 ± 0.027 | 1.325 ± 0.028 | 1.402 ± 0.03 | 1.489 ± 0.032 | 1.536 ± 0.033 | 1.701 ± 0.036 | 1.842 ± 0.039
298.2 K | 1.074 ± 0.023 | 1.076 ± 0.023 | 1.102 ± 0.024 | 1.15 ± 0.025 | 1.208 ± 0.026 | 1.276 ± 0.027 | 1.355 ± 0.029 | 1.397 ± 0.03 | 1.542 ± 0.033 | 1.667 ± 0.036
303.2 K | 0.98 ± 0.021 | 0.983 ± 0.021 | 1.008 ± 0.022 | 1.052 ± 0.022 | 1.106 ± 0.024 | 1.167 ± 0.025 | 1.238 ± 0.026 | 1.276 ± 0.027 | 1.408 ± 0.03 | 1.518 ± 0.032
308.2 K | 0.896 ± 0.019 | 0.901 ± 0.019 | 0.925 ± 0.02 | 0.966 ± 0.021 | 1.015 ± 0.022 | 1.072 ± 0.023 | 1.137 ± 0.024 | 1.17 ± 0.025 | 1.291 ± 0.028 | 1.391 ± 0.03
313.2 K | 0.822 ± 0.018 | 0.827 ± 0.018 | 0.851 ± 0.018 | 0.89 ± 0.019 | 0.936 ± 0.02 | 0.988 ± 0.021 | 1.047 ± 0.022 | 1.079 ± 0.023 | 1.188 ± 0.025 | 1.279 ± 0.027

CCCCOCCO + NCCO
viscosity [mPa·s]
Conditions | 293.15 K | 298.15 K | 303.15 K | 308.15 K | 313.15 K | 318.15 K | 323.15 K
101 kPa, x2 = 0.177 | 4.615 ± 0.24 | 3.961 ± 0.21 | 3.431 ± 0.18 | 2.994 ± 0.16 | 2.629 ± 0.14 | 2.325 ± 0.12 | 2.07 ± 0.11
101 kPa, x2 = 0.453 | 8.081 ± 0.41 | 6.718 ± 0.34 | 5.65 ± 0.29 | 4.799 ± 0.25 | 4.115 ± 0.21 | 3.559 ± 0.18 | 3.101 ± 0.16
101 kPa, x2 = 0.659 | 12.25 ± 0.63 | 9.951 ± 0.51 | 8.19 ± 0.42 | 6.823 ± 0.35 | 5.747 ± 0.29 | 4.888 ± 0.25 | 4.197 ± 0.21
101 kPa, x2 = 0.819 | 16.81 ± 0.85 | 13.39 ± 0.68 | 10.84 ± 0.55 | 8.898 ± 0.45 | 7.395 ± 0.38 | 6.212 ± 0.32 | 5.271 ± 0.27
101 kPa, x2 = 0.946 | 21.65 ± 1.1 | 17.02 ± 0.86 | 13.6 ± 0.69 | 11.03 ± 0.56 | 9.061 ± 0.46 | 7.538 ± 0.38 | 6.342 ± 0.32
101.3 kPa, x2 = 0.457 | 8.08 ± 0.18 | 6.72 ± 0.15 | 5.65 ± 0.12 | 4.8 ± 0.1 | 4.11 ± 0.09 | 3.56 ± 0.08 | 3.1 ± 0.07
101.3 kPa, x2 = 0.664 | 12.25 ± 0.27 | 9.95 ± 0.22 | 8.19 ± 0.18 | 6.82 ± 0.15 | 5.75 ± 0.13 | 4.89 ± 0.11 | 4.2 ± 0.09

CCCCCCCCN(CCCCCCCC)CCCCCCCC + CCCCCCCCO
Conditions | viscosity [mPa·s]
298 K, 101.3 kPa, x1 = 0.00811 | 7.341 ± 0.19

O=C(OCc1ccccc1)c1ccccc1 + c1ccccc1
viscosity [mPa·s], 101 kPa
Conditions | x1 = 0.11 | x1 = 0.1886 | x1 = 0.27 | x1 = 0.4124 | x1 = 0.52 | x1 = 0.5911 | x1 = 0.7827 | x1 = 0.8954
298.15 K | 0.9057 ± 0.0095 | 1.196 ± 0.032 | 1.514 ± 0.016 | 2.301 ± 0.061 | 3.073 ± 0.034 | 3.584 ± 0.095 | 5.478 ± 0.15 | 6.883 ± 0.18
313.15 K | 0.7205 ± 0.0075 | – | 1.161 ± 0.012 | – | 2.18 ± 0.023 | – | – | –
